How the values were obtained:
Test in all cases: NCI 60 cell panel SRB screen
HL-60(TB) = type: cell-based; settings: Homo sapiens; for activity at 10 µM: single dose 10 μM, read-out: percent cell growth promotion
MOLT-4 = type: cell-based; settings: Homo sapiens; for activity at 10 µM: MOLT-4, single dose 10 μM, read-out: percent cell growth promotion
SR = type: cell-based; settings: Homo sapiens; for activity at 10 µM: single dose 10 μM, read-out: percent cell growth promotion
NCI-H322M = type: cell-based; settings: Homo sapiens; for activity at 10 µM: single dose 10 μM, read-out: percent cell growth promotion
COLO 205 = type: cell-based; settings: Homo sapiens; for activity at 10 µM: COLO 205, single dose 10 μM, read-out: percent cell growth promotion
HCT-116 = type: cell-based; settings: Homo sapiens; for activity at 10 µM: HCT-116, single dose 10 μM, read-out: percent cell growth promotion
HCT-15 = type: cell-based; settings: Homo sapiens; for activity at 10 µM: HCT-15, single dose 10 μM, read-out: percent cell growth promotion
HT29 = type: cell-based; settings: Homo sapiens, HT-29; for activity at 10 µM: HT29, single dose 10 μM, read-out: percent cell growth promotion
KM12 = type: cell-based; settings: Homo sapiens; for activity at 10 µM: KM12, single dose 10 μM, read-out: percent cell growth promotion
SW-620 = type: cell-based; settings: Homo sapiens; for activity at 10 µM: SW-620, single dose 10 μM, read-out: percent cell growth promotion
SNB-75 = type: cell-based; settings: Homo sapiens; for activity at 10 µM: SNB-75, single dose 10 μM, read-out: percent cell growth promotion
U251 = type: cell-based; settings: Homo sapiens, U-251; for activity at 10 µM: U251, single dose 10 μM, read-out: percent cell growth promotion
MALME-3M = type: cell-based; settings: Homo sapiens; for activity at 10 µM: read-out: percent cell growth promotion
M14 = type: cell-based; settings: Homo sapiens; for activity at 10 µM: M14, read-out: percent cell growth promotion
SK-MEL-28 = type: cell-based; settings: Homo sapiens; for activity at 10 µM: SK-MEL-28, read-out: percent cell growth promotion
UACC-62 = type: cell-based; settings: for activity at 10 µM: UACC-62, read-out: percent cell growth promotion
IGROV1 = type: cell-based; settings: Homo sapiens, IGROV-1; for activity at 10 µM: IGROV1, single dose 10 μM, read-out: percent cell growth promotion
OVCAR-5 = type: cell-based; settings: Homo sapiens; for activity at 10 µM: OVCAR-5, single dose 10 μM, read-out: percent cell growth promotion
786-0 = type: cell-based; settings: Homo sapiens; for activity at 10 µM: 786-0, single dose 10 μM, read-out: percent cell growth promotion
A498 = type: cell-based; settings: Homo sapiens; for activity at 10 µM: A498, single dose 10 μM, read-out: percent cell growth promotion
CAKI-1 = type: cell-based, human; settings: for activity at 10 µM: CAKI-1, single dose 10 μM, read-out: percent cell growth promotion
RXF 393 = type: cell-based; settings: Homo sapiens; for activity at 10 µM: RXF 393, single dose 10 μM, read-out: percent cell growth promotion
TK-10 = type: cell-based, human; settings: for activity at 10 µM: TK-10, single dose 10 μM, read-out: percent cell growth promotion
DU-145 = type: cell-based; settings: Homo sapiens; for activity at 10 µM: DU-145, single dose 10 μM, read-out: percent cell growth promotion
HS 578T = type: cell-based; settings: Homo sapiens; for activity at 10 µM: read-out: percent cell growth promotion
BT-549 = type: cell-based; settings: Homo sapiens; for activity at 10 µM: BT-549, read-out: percent cell growth promotion
[1] = 5 log dose, 48 h, read-out: LC50 (the source's name)

## O=C(Nc1ccc(Cl)cc1)Nc1ccc(Oc2nncc3ccccc23)cc1 [Compound 7b, 1–(4-Chlorophenyl)-3–(4-(phthalazin-1-yloxy)phenyl)urea]
HL-60(TB); 5 log dose
  GI50: 1.08 µM
  IC (TGI): 13.4 µM
HL-60(TB); [1]
  CC50: > 100 µM
HL-60(TB)
  activity at 10 µM: 3.65%
MOLT-4; MOLT-4, 5 log dose
  GI50: 0.37 µM
  IC (TGI): > 100 µM
MOLT-4; MOLT-4, 5 log dose, 48 h, read-out: LC50 (the source's name)
  CC50: > 100 µM
MOLT-4
  activity at 10 µM: 3.99%
SR; 5 log dose
  GI50: 0.4 µM
  IC (TGI): > 100 µM
SR; [1]
  CC50: > 100 µM
SR
  activity at 10 µM: 2.64%
NCI-H322M; 5 log dose
  GI50: 2.6 µM
  IC (TGI): 9.51 µM
NCI-H322M; [1]
  CC50: 34.9 µM
NCI-H322M
  activity at 10 µM: 60.9%
COLO 205; COLO 205, 5 log dose
  GI50: 1.18 µM
  IC (TGI): 2.92 µM
COLO 205; COLO 205, 5 log dose, 48 h, read-out: LC50 (the source's name)
  CC50: 7.21 µM
COLO 205
  activity at 10 µM: 11.9%
HCT-116; HCT-116, 5 log dose
  GI50: 0.32 µM
  IC (TGI): 1.2 µM
HCT-116; HCT-116, 5 log dose, 48 h
  LC50 (lethal concentration 50%): 4.65 µM
HCT-116
  activity at 10 µM: -56.9%
HCT-15; HCT-15, 5 log dose
  GI50: 0.96 µM
  IC (TGI): 3.08 µM
HCT-15; HCT-15, 5 log dose, 48 h, read-out: LC50 (the source's name)
  CC50: 9.67 µM
HCT-15
  activity at 10 µM: 2.76%
HT29; HT29, 5 log dose
  GI50: 0.46 µM
  IC (TGI): 2.39 µM
HT29; HT29, 5 log dose, 48 h, read-out: LC50 (the source's name)
  CC50: > 100 µM
HT29
  activity at 10 µM: 0.52%
KM12; KM12, 5 log dose
  GI50: 0.88 µM
  IC (TGI): 2.65 µM
KM12; KM12, 5 log dose, 48 h, read-out: LC50 (the source's name)
  CC50: 7.38 µM
KM12
  activity at 10 µM: -32.3%
SW-620; SW-620, 5 log dose
  GI50: 0.34 µM
  IC (TGI): 1.06 µM
SW-620; SW-620, 5 log dose, 48 h, read-out: LC50 (the source's name)
  CC50: 30.3 µM
SW-620
  activity at 10 µM: -30.1%
SNB-75; SNB-75, 5 log dose
  GI50: 0.45 µM
  IC (TGI): 1.95 µM
SNB-75; SNB-75, 5 log dose, 48 h
  LC50 (concentration killing 50% of cells): 5.2 µM
SNB-75
  activity at 10 µM: -3.13%
U251; U251, 5 log dose
  GI50: 1.01 µM
  IC (TGI): 2.38 µM
U251; U251, 5 log dose, 48 h, read-out: LC50 (the source's name)
  CC50: 5.61 µM
U251
  activity at 10 µM: -31.1%
MALME-3M; Malme-3M
  GI50: 0.44 µM
  activity at 10 µM: 0.78%
MALME-3M; Malme-3M, read-out: TGI
  IC (TGI): 2.31 µM
MALME-3M; MALME-3M, 5 log dose, 48 h, read-out: LC50 (the source's name)
  CC50: 9.69 µM
M14; M14
  GI50: 1.12 µM
M14; M14, read-out: TGI
  IC (TGI): 3.16 µM
M14
  activity at 10 µM: 7.3%
M14; M14, 5 log dose, 48 h, read-out: LC50 (the source's name)
  CC50: 8.93 µM
SK-MEL-28; SK-MEL-28
  GI50: 0.42 µM
SK-MEL-28; SK-MEL-28, read-out: TGI
  IC (TGI): 1.65 µM
SK-MEL-28
  activity at 10 µM: -31.6%
SK-MEL-28; SK-MEL-28, 5 log dose, 48 h, read-out: LC50 (the source's name)
  CC50: 5.33 µM
UACC-62; Homo sapiens, UACC-62
  GI50: 1.08 µM
UACC-62; Homo sapiens
  activity at 10 µM: -14.3%
UACC-62; Homo sapiens, UACC-62, 5 log dose, 48 h, read-out: LC50 (the source's name)
  CC50: 14 µM
UACC-62; UACC-62, 5 log dose
  TGI: 3.46 µM
IGROV1; IGROV1, 5 log dose
  GI50: 1.16 µM
  IC (TGI): 5 µM
IGROV1; IGROV1, 5 log dose, 48 h, read-out: LC50 (the source's name)
  CC50: > 100 µM
IGROV1
  activity at 10 µM: 8.16%
OVCAR-5; OVCAR-5, 5 log dose
  GI50: 1.89 µM
  IC (TGI): 4.47 µM
OVCAR-5; OVCAR-5, 5 log dose, 48 h, read-out: LC50 (the source's name)
  CC50: 12.6 µM
OVCAR-5
  activity at 10 µM: -16%
786-0; 786-0, 5 log dose
  GI50: 0.87 µM
  IC (TGI): 2.35 µM
A498; A498, 5 log dose
  GI50: 1.5 µM
  IC (TGI): 3.06 µM
A498; A498, 5 log dose, 48 h, read-out: LC50 (the source's name)
  CC50: 6.26 µM
A498
  activity at 10 µM: 24.5%
CAKI-1; CAKI-1, 5 log dose
  TGI: 8.70 µM
CAKI-1; Homo sapiens, CAKI-1, 5 log dose
  GI50: 2.72 µM
CAKI-1; Homo sapiens, CAKI-1, 5 log dose, 48 h, read-out: LC50 (the source's name)
  CC50: 43.9 µM
CAKI-1; Homo sapiens
  activity at 10 µM: 18.7%
RXF 393; RXF 393, 5 log dose
  GI50: 0.31 µM
  IC (TGI): 1.05 µM
RXF 393; RXF 393, 5 log dose, 48 h, read-out: LC50 (the source's name)
  CC50: 3.74 µM
RXF 393
  activity at 10 µM: -91.2%
TK-10; Homo sapiens, TK-10, 5 log dose
  GI50: 2.12 µM
TK-10; Homo sapiens, TK-10, 5 log dose, 48 h, read-out: LC50 (the source's name)
  CC50: 8.64 µM
TK-10; Homo sapiens
  activity at 10 µM: 27.5%
TK-10; TK-10, 5 log dose
  TGI: 4.28 µM
DU-145; DU-145, 5 log dose
  GI50: 0.73 µM
  IC (TGI): 2.08 µM
DU-145; DU-145, 5 log dose, 48 h, read-out: LC50 (the source's name)
  CC50: 4.88 µM
DU-145
  activity at 10 µM: 11.2%
HS 578T; Hs-578T
  GI50: 0.69 µM
  activity at 10 µM: 37.5%
HS 578T; Hs-578T, read-out: TGI
  IC (TGI): 47 µM
HS 578T; HS 578T, 5 log dose, 48 h, read-out: LC50 (the source's name)
  CC50: > 100 µM
BT-549; BT-549
  GI50: 2.08 µM
BT-549; BT-549, read-out: TGI
  IC (TGI): 7.43 µM
BT-549
  activity at 10 µM: -10.3%
BT-549; BT-549, 5 log dose, 48 h, read-out: LC50 (the source's name)
  CC50: 58.1 µM

## Cc1nnc(Oc2ccc(NC(=O)Nc3ccc(Cl)cc3)cc2)c2ccccc12 [Compound 7e, 1–(4-Chlorophenyl)-3–(4-(4-methylphthalazin-1-yloxy)phenyl)urea]
HL-60(TB)
  activity at 10 µM: 80.1%
MOLT-4
  activity at 10 µM: 36.1%
SR
  activity at 10 µM: 38.5%
NCI-H322M
  activity at 10 µM: 82.4%
COLO 205
  activity at 10 µM: 87.4%
HCT-116
  activity at 10 µM: 72.5%
HCT-15
  activity at 10 µM: 69.5%
HT29
  activity at 10 µM: 77%
KM12
  activity at 10 µM: 57.7%
SW-620
  activity at 10 µM: 95%
SNB-75
  activity at 10 µM: 47.3%
U251
  activity at 10 µM: 60%
MALME-3M; Malme-3M
  activity at 10 µM: 92.6%
M14
  activity at 10 µM: 79.4%
SK-MEL-28
  activity at 10 µM: 88.3%
UACC-62; Homo sapiens
  activity at 10 µM: 45.8%
IGROV1
  activity at 10 µM: 90.9%
OVCAR-5
  activity at 10 µM: 119%
786-0
  activity at 10 µM: 83.9%
A498
  activity at 10 µM: 51.5%
CAKI-1; Homo sapiens
  activity at 10 µM: 79.7%
RXF 393
  activity at 10 µM: 82%
TK-10; Homo sapiens
  activity at 10 µM: 84.8%
DU-145
  activity at 10 µM: 81.4%
HS 578T; Hs-578T
  activity at 10 µM: 76.4%
BT-549
  activity at 10 µM: 72%

## CCOC(=O)N1CCN(c2nncc3ccccc23)CC1 [Compound 8a, Ethyl 4-(phthalazin-1-yl)piperazine-1-carboxylate]
HL-60(TB)
  activity at 10 µM: 108%
MOLT-4
  activity at 10 µM: 98.6%
SR
  activity at 10 µM: 102%
NCI-H322M
  activity at 10 µM: 113%
COLO 205
  activity at 10 µM: 109%
HCT-116
  activity at 10 µM: 99.1%
HCT-15
  activity at 10 µM: 111%
HT29
  activity at 10 µM: 106%
KM12
  activity at 10 µM: 104%
SW-620
  activity at 10 µM: 102%
SNB-75
  activity at 10 µM: 104%
U251
  activity at 10 µM: 99.3%
MALME-3M; Malme-3M
  activity at 10 µM: 109%
M14
  activity at 10 µM: 110%
SK-MEL-28
  activity at 10 µM: 116%
UACC-62; Homo sapiens
  activity at 10 µM: 103%
IGROV1
  activity at 10 µM: 120%
OVCAR-5
  activity at 10 µM: 128%
786-0
  activity at 10 µM: 106%
A498
  activity at 10 µM: 105%
CAKI-1; Homo sapiens
  activity at 10 µM: 96.1%
RXF 393
  activity at 10 µM: 102%
TK-10; Homo sapiens
  activity at 10 µM: 110%
DU-145
  activity at 10 µM: 104%
HS 578T; Hs-578T
  activity at 10 µM: 113%
BT-549
  activity at 10 µM: 112%

Source: publication PMC6691788, “Design and synthesis of phthalazine-based compounds as potent anticancer agents with potential antiangiogenic activity via VEGFR-2 inhibition” (Journal of Enzyme Inhibition and Medicinal Chemistry, 2019)
